Laboratory results: ChEMBL document CHEMBL4138123, “Design, synthesis and biological evaluation of novel pyrazolochalcones as potential modulators of PI3K/Akt/mTOR pathway and inducers of apoptosis in breast cancer cells” (Eur J Med Chem, 2017)

Tests used:
Assay type in all cases: functional
NCI-H322M [1] = experiment: Cytotoxicity against human NCI-H322M cells assessed as cell growth at 100 uM after 48 hrs by sulforhodamine B assay relative to control; conditions: read-out: Activity
NCI-H460 [2] = experiment: Cytotoxicity against human NCI-H460 cells assessed as cell growth at 100 uM after 48 hrs by sulforhodamine B assay relative to control; conditions: NCI-H460, 48 h, read-out: Activity
TK-10 = experiment: Cytotoxicity against human TK10 cells assessed as cell growth at 10 uM after 48 hrs by sulforhodamine B assay relative to control; conditions: TK-10, 48 h, read-out: Activity
HOP-62 [3] = experiment: Cytotoxicity against human HOP62 cells assessed as cell growth at 100 uM after 48 hrs by sulforhodamine B assay relative to control; conditions: HOP-62, 48 h, read-out: Activity
A498 [4] = experiment: Cytotoxicity against human A498 cells assessed as cell growth at 10 uM after 48 hrs by sulforhodamine B assay relative to control; conditions: A498, 48 h, read-out: Activity
HCT-15 [5] = experiment: Cytotoxicity against human HCT15 cells assessed as cell growth at 10 uM after 48 hrs by sulforhodamine B assay relative to control; conditions: HCT-15, 48 h, read-out: Activity
A498 [6] = experiment: Cytotoxicity against human A498 cells assessed as cell growth at 1 uM after 48 hrs by sulforhodamine B assay relative to control; conditions: A498, 48 h, read-out: Activity
PC-3 = experiment: Cytotoxicity against human PC3 cells assessed as cell growth at 1 uM after 48 hrs by sulforhodamine B assay relative to control; conditions: PC-3, 48 h, read-out: Activity
SK-MEL-28 [7] = experiment: Cytotoxicity against human SK-MEL-28 cells assessed as cell growth at 0.1 uM after 48 hrs by sulforhodamine B assay relative to control; conditions: SK-MEL-28, 48 h, read-out: Activity
RXF 393 = experiment: Cytotoxicity against human RXF393 cells assessed as growth inhibition after 48 hrs by sulforhodamine B assay; conditions: RXF 393, 48 h
SK-MEL-28 [8] = experiment: Cytotoxicity against human SK-MEL-28 cells assessed as cell growth at 10 uM after 48 hrs by sulforhodamine B assay relative to control; conditions: SK-MEL-28, 48 h, read-out: Activity
UACC-257 [9] = experiment: Cytotoxicity against human UACC257 cells assessed as cell growth at 100 uM after 48 hrs by sulforhodamine B assay relative to control; conditions: UACC-257, 48 h, read-out: Activity
OVCAR-5 = experiment: Cytotoxicity against human OVCAR5 cells assessed as cell growth at 0.01 uM after 48 hrs by sulforhodamine B assay relative to control; conditions: OVCAR-5, 48 h, read-out: Activity
HCT-116 = experiment: Cytotoxicity against human HCT116 cells assessed as growth inhibition after 48 hrs by sulforhodamine B assay; conditions: HCT-116, 48 h
HL-60(TB) = experiment: Cytotoxicity against human HL-60(TB) cells assessed as cell growth at 10 uM after 48 hrs by sulforhodamine B assay relative to control; conditions: HL-60, 48 h, read-out: Activity
HT-29 = experiment: Cytotoxicity against human HT-29 cells assessed as cell growth at 0.1 uM after 48 hrs by sulforhodamine B assay relative to control; conditions: HT-29, 48 h, read-out: Activity
SN12C = experiment: Cytotoxicity against human SN12C cells assessed as cell growth at 1 uM after 48 hrs by sulforhodamine B assay relative to control; conditions: read-out: Activity
NCI-H460 [10] = experiment: Cytotoxicity against human NCI-H460 cells assessed as cell growth at 0.01 uM after 48 hrs by sulforhodamine B assay relative to control; conditions: NCI-H460, 48 h, read-out: Activity
NCI-H322M [11] = experiment: Cytotoxicity against human NCI-H322M cells assessed as cell growth at 0.1 uM after 48 hrs by sulforhodamine B assay relative to control; conditions: read-out: Activity
UO-31 = experiment: Cytotoxicity against human UO31 cells assessed as cell growth at 0.1 uM after 48 hrs by sulforhodamine B assay relative to control; conditions: UO-31, 48 h, read-out: Activity
MDA-MB-468 = experiment: Cytotoxicity against human MDA-MB-468 cells assessed as growth inhibition after 48 hrs by sulforhodamine B assay; conditions: MDA-MB-468, 48 h
DU-145 = experiment: Cytotoxicity against human DU145 cells assessed as cell growth at 10 uM after 48 hrs by sulforhodamine B assay relative to control; conditions: DU-145, 48 h, read-out: Activity
MCF7 = experiment: Cytotoxicity against human MCF7 cells assessed as cell growth at 0.01 uM after 48 hrs by sulforhodamine B assay relative to control; conditions: MCF7, 48 h, read-out: Activity
SF-268 = experiment: Cytotoxicity against human SF268 cells assessed as cell growth at 0.01 uM after 48 hrs by sulforhodamine B assay relative to control; conditions: SF-268, 48 h, read-out: Activity
NCI-H522 = experiment: Cytotoxicity against human NCI-H522 cells assessed as growth inhibition after 48 hrs by sulforhodamine B assay; conditions: NCI-H522, 48 h
SR = experiment: Cytotoxicity against human SR cells assessed as cell growth at 0.1 uM after 48 hrs by sulforhodamine B assay relative to control; conditions: read-out: Activity
RPMI-8226 = experiment: Cytotoxicity against human RPMI8226 cells assessed as cell growth at 10 uM after 48 hrs by sulforhodamine B assay relative to control; conditions: RPMI-8226, 48 h, read-out: Activity
HOP-62 [12] = experiment: Cytotoxicity against human HOP62 cells assessed as cell growth at 0.01 uM after 48 hrs by sulforhodamine B assay relative to control; conditions: HOP-62, 48 h, read-out: Activity
Hs-578T = experiment: Cytotoxicity against human Hs 578T cells assessed as cell growth at 1 uM after 48 hrs by sulforhodamine B assay relative to control; conditions: read-out: Activity
MOLT-4 = experiment: Cytotoxicity against human MOLT4 cells assessed as cell growth at 100 uM after 48 hrs by sulforhodamine B assay relative to control; conditions: MOLT-4, 48 h, read-out: Activity
COLO 205 = experiment: Cytotoxicity against human COLO205 cells assessed as growth inhibition after 48 hrs by sulforhodamine B assay; conditions: COLO 205, 48 h
KM12 = experiment: Cytotoxicity against human KM12 cells assessed as cell growth at 0.01 uM after 48 hrs by sulforhodamine B assay relative to control; conditions: KM12, 48 h, read-out: Activity
UACC-62 = experiment: Cytotoxicity against human UACC62 cells assessed as cell growth at 0.01 uM after 48 hrs by sulforhodamine B assay relative to control; conditions: UACC-62, 48 h, read-out: Activity
HCT-15 [13] = experiment: Cytotoxicity against human HCT15 cells assessed as cell growth at 0.1 uM after 48 hrs by sulforhodamine B assay relative to control; conditions: HCT-15, 48 h, read-out: Activity
UACC-257 [14] = experiment: Cytotoxicity against human UACC257 cells assessed as cell growth at 10 uM after 48 hrs by sulforhodamine B assay relative to control; conditions: UACC-257, 48 h, read-out: Activity
SK-MEL-5 = experiment: Cytotoxicity against human SK-MEL-5 cells assessed as cell growth at 10 uM after 48 hrs by sulforhodamine B assay relative to control; conditions: SK-MEL-5, 48 h, read-out: Activity

## COc1ccc(-c2cc(/C=C/C(=O)c3ccc(N)cc3)[nH]n2)cc1
NCI-H322M [1]
  growth at 100 µM: -98%
NCI-H460 [2]
  growth at 100 µM: -70%
TK-10
  growth at 10 µM: 12%
HOP-62 [3]
  growth at 100 µM: -60%
A498 [4]
  growth at 10 µM: -39%
HCT-15 [5]
  growth at 10 µM: -40%
A498 [6]
  growth at 1 µM: 90%
PC-3
  growth at 1 µM: 81%
SK-MEL-28 [7]
  growth at 0.1 µM: 91%
RXF 393
  GI50: 1.67 µM
  LC50 (concentration killing 50% of cells): 15 µM
  TGI: 4.19 µM
SK-MEL-28 [8]
  growth at 10 µM: -60%
UACC-257 [9]
  growth at 100 µM: -95%
OVCAR-5
  growth at 0.01 µM: 99%
HCT-116
  GI50: 1.38 µM
  TGI: 3.61 µM
HL-60(TB)
  growth at 10 µM: -8%
HT-29
  growth at 0.1 µM: 95%
SN12C
  growth at 1 µM: 76%
NCI-H460 [10]
  growth at 0.01 µM: 101%
NCI-H322M [11]
  growth at 0.1 µM: 89%
UO-31
  growth at 0.1 µM: 82%
MDA-MB-468
  GI50: 0.43 µM
  LC50: 7.45 µM
  TGI: 2.09 µM
DU-145
  growth at 10 µM: -55%
MCF7
  growth at 0.01 µM: 84%
SF-268
  growth at 0.01 µM: 95%
NCI-H522
  GI50: 1.21 µM
  LC50: 7.03 µM
  TGI: 2.91 µM
SR
  growth at 0.1 µM: 98%
RPMI-8226
  growth at 10 µM: -35%
HOP-62 [12]
  growth at 0.01 µM: 107%
Hs-578T
  growth at 1 µM: 93%
MOLT-4
  growth at 100 µM: -47%
COLO 205
  GI50: 1.85 µM
  LC50: 6.41 µM
  TGI: 3.45 µM
KM12
  growth at 0.01 µM: 96%
UACC-62
  growth at 0.01 µM: 96%
HCT-15 [13]
  growth at 0.1 µM: 100%
UACC-257 [14]
  growth at 10 µM: -54%
SK-MEL-5
  growth at 10 µM: -3%
